± gives the expanded uncertainty stated by the source.
Assay: refractive index (Na D-line) (dimensionless); xn = mol fraction of the nth substance listed
Details: 100 kPa, Liquid, Standard Abbe refractometry

CCOC(=O)CCC(=O)OCC [diethyl butanedioate] + CC(C)CCO
refractive index
Details	x1 = 0.1	x1 = 0.2	x1 = 0.3	x1 = 0.3999	x1 = 0.5	x1 = 0.5999	x1 = 0.7	x1 = 0.7999	x1 = 0.9002	x1 = 1
288.15 K	1.41 ± 0.0028	1.4114 ± 0.0028	1.4129 ± 0.0028	1.4144 ± 0.0028	1.4158 ± 0.0028	1.4172 ± 0.0028	1.4184 ± 0.0028	1.4197 ± 0.0028	1.4208 ± 0.0028	1.4217 ± 0.0028
293.15 K	1.4079 ± 0.0028	1.4093 ± 0.0028	1.4108 ± 0.0028	1.4123 ± 0.0028	1.4136 ± 0.0028	1.415 ± 0.0028	1.4163 ± 0.0028	1.4175 ± 0.0028	1.4186 ± 0.0028	1.4195 ± 0.0028
298.15 K	1.4058 ± 0.0028	1.4072 ± 0.0028	1.4087 ± 0.0028	1.4101 ± 0.0028	1.4115 ± 0.0028	1.4128 ± 0.0028	1.414 ± 0.0028	1.4153 ± 0.0028	1.4164 ± 0.0028	1.4173 ± 0.0028
303.15 K	1.4037 ± 0.0028	1.4051 ± 0.0028	1.4065 ± 0.0028	1.4079 ± 0.0028	1.4093 ± 0.0028	1.4106 ± 0.0028	1.4119 ± 0.0028	1.4131 ± 0.0028	1.4142 ± 0.0028	1.4151 ± 0.0028
308.15 K	1.4016 ± 0.0028	1.4029 ± 0.0028	1.4043 ± 0.0028	1.4057 ± 0.0028	1.4071 ± 0.0028	1.4084 ± 0.0028	1.4096 ± 0.0028	1.4108 ± 0.0028	1.412 ± 0.0028	1.4129 ± 0.0028
313.15 K	1.3996 ± 0.0028	1.4008 ± 0.0028	1.4022 ± 0.0028	1.4036 ± 0.0028	1.4049 ± 0.0028	1.4062 ± 0.0028	1.4075 ± 0.0028	1.4087 ± 0.0028	1.4098 ± 0.0028	1.4108 ± 0.0028
318.15 K	1.3975 ± 0.0028	1.3988 ± 0.0028	1.4001 ± 0.0028	1.4014 ± 0.0028	1.4028 ± 0.0028	1.4041 ± 0.0028	1.4054 ± 0.0028	1.4066 ± 0.0028	1.4077 ± 0.0028	1.4088 ± 0.0028
323.15 K	1.3954 ± 0.0028	1.3966 ± 0.0028	1.398 ± 0.0028	1.3993 ± 0.0028	1.4006 ± 0.0028	1.4019 ± 0.0028	1.4032 ± 0.0028	1.4045 ± 0.0028	1.4056 ± 0.0028	1.4067 ± 0.0028

CCOC(=O)CCC(=O)OCC [diethyl butanedioate] + CC(C)CO
refractive index
Details	x1 = 0.0999	x1 = 0.2	x1 = 0.3001	x1 = 0.4	x1 = 0.4999	x1 = 0.5999	x1 = 0.6999	x1 = 0.8	x1 = 0.9	x1 = 1
288.15 K	1.4016 ± 0.0028	1.4047 ± 0.0028	1.4076 ± 0.0028	1.4103 ± 0.0028	1.4127 ± 0.0028	1.4148 ± 0.0028	1.4168 ± 0.0028	1.4186 ± 0.0028	1.4203 ± 0.0028	1.4217 ± 0.0028
293.15 K	1.3995 ± 0.0028	1.4025 ± 0.0028	1.4055 ± 0.0028	1.4081 ± 0.0028	1.4105 ± 0.0028	1.4127 ± 0.0028	1.4146 ± 0.0028	1.4164 ± 0.0028	1.4181 ± 0.0028	1.4195 ± 0.0028
298.15 K	1.3974 ± 0.0028	1.4004 ± 0.0028	1.4033 ± 0.0028	1.4059 ± 0.0028	1.4083 ± 0.0028	1.4104 ± 0.0028	1.4124 ± 0.0028	1.4142 ± 0.0028	1.4159 ± 0.0028	1.4173 ± 0.0028
303.15 K	1.3952 ± 0.0028	1.3982 ± 0.0028	1.4011 ± 0.0028	1.4037 ± 0.0028	1.4061 ± 0.0028	1.4082 ± 0.0028	1.4102 ± 0.0028	1.412 ± 0.0028	1.4137 ± 0.0028	1.4151 ± 0.0028
308.15 K	1.3929 ± 0.0028	1.396 ± 0.0028	1.3989 ± 0.0028	1.4015 ± 0.0028	1.4038 ± 0.0028	1.406 ± 0.0028	1.408 ± 0.0028	1.4098 ± 0.0028	1.4115 ± 0.0028	1.4129 ± 0.0028
313.15 K	1.3908 ± 0.0028	1.3938 ± 0.0028	1.3966 ± 0.0028	1.3992 ± 0.0028	1.4016 ± 0.0028	1.4037 ± 0.0028	1.4058 ± 0.0028	1.4076 ± 0.0028	1.4093 ± 0.0028	1.4108 ± 0.0028
318.15 K	1.3886 ± 0.0028	1.3916 ± 0.0028	1.3943 ± 0.0028	1.397 ± 0.0028	1.3993 ± 0.0028	1.4015 ± 0.0028	1.4036 ± 0.0028	1.4054 ± 0.0028	1.4071 ± 0.0028	1.4088 ± 0.0028
323.15 K	1.3863 ± 0.0028	1.3894 ± 0.0028	1.3921 ± 0.0028	1.3947 ± 0.0028	1.3971 ± 0.0028	1.3993 ± 0.0028	1.4013 ± 0.0028	1.4032 ± 0.0028	1.405 ± 0.0028	1.4067 ± 0.0028

— the NIST ThermoML archive (doi:10.1016/j.jct.2016.09.030)
